From patent publication US20220281848A1, “PYRAZOLE-SUBSTITUTED PYRROLIDINONES AS HERBICIDES” (FMC Corporation, priority 2019, published 2022)

Key:
Format in all cases: in vivo
Conditions in all cases: after 13 d
[1] = tested on: giant foxtail (Setaria faberi, SETFA); experiment: Test A pre-emergence, giant foxtail
Description: (§1) Seeds of corn (Zea mays, ZEAMX), giant foxtail (Setaria faberi, SETFA), barnyardgrass (Echinochloa crus-galli, ECHCG), ivy-leaved morning glory (Ipomoea hederacea, IPOHE), redroot pigweed (Amaranthus retroflexus, AMARE) and velvetleaf (Abutilon theophrasti, ABUTH) were sown in standard soil in pots. After cultivation for one day under controlled conditions in a glasshouse (at 24/16° C., day/night; 14 h light; 65% humidity), the plants were sprayed with an aqueous spray solution derived from the formulation of the technical active ingredient in acetone/water (50:50) solution containing 0.5% Tween 20 (polyoxyethylene sorbitan monolaurate, CAS RN 9005-64-5) to give a final dose of 15.625, 62.5 or 250 g/ha of test compound.
(§2) The test plants were then grown under controlled conditions in a glasshouse (at 24/16° C., day/night; 14 h light; 65% humidity) and watered twice daily. After 13 d the test was evaluated (100=total damage to plant; 0=no damage to plant).

[2] = tested on: redroot pigweed (Amaranthus retroflexus, AMARE); experiment: Test A pre-emergence, redroot pigweed
Description: as §1, §2

[3] = tested on: ivy-leaved morning glory (Ipomoea hederacea, IPOHE); experiment: Test A post-emergence, ivy-leaved morning glory
Description: as §1, with “IPOHE)),” for “IPOHE),”, “8 d” for “one day”
(§3) The test plants were then grown on under controlled conditions in a glasshouse (at 24/16° C., day/night; 14 h light; 65% humidity) and watered twice daily. After 13 d the test was evaluated (100=total damage to plant; 0=no damage to plant).

[4] = tested on: barnyardgrass (Echinochloa crus-galli, ECHCG); experiment: Test A pre-emergence, barnyardgrass
Description: as §1, §2

[5] = tested on: velvetleaf (Abutilon theophrasti, ABUTH); experiment: Test A pre-emergence, velvetleaf
Description: as §1, §2

[6] = tested on: giant foxtail (Setaria faberi, SETFA); experiment: Test A post-emergence, giant foxtail
Description: as §1, with “IPOHE)),” for “IPOHE),”, “8 d” for “one day”
as §3

[7] = tested on: ivy-leaved morning glory (Ipomoea hederacea, IPOHE); experiment: Test A pre-emergence, ivy-leaved morning glory
Description: as §1, §2

corn (Zea mays, ZEAMX) [8] = experiment: Test A post-emergence, corn
Description: as §1, with “IPOHE)),” for “IPOHE),”, “8 d” for “one day”
as §3

[9] = tested on: redroot pigweed (Amaranthus retroflexus, AMARE); experiment: Test A post-emergence, redroot pigweed
Description: as §1, with “IPOHE)),” for “IPOHE),”, “8 d” for “one day”
as §3

[10] = tested on: velvetleaf (Abutilon theophrasti, ABUTH); experiment: Test A post-emergence, velvetleaf
Description: as §1, with “IPOHE)),” for “IPOHE),”, “8 d” for “one day”
as §3

[11] = tested on: barnyardgrass (Echinochloa crus-galli, ECHCG); experiment: Test A post-emergence, barnyardgrass
Description: as §1, with “IPOHE)),” for “IPOHE),”, “8 d” for “one day”
as §3

corn (Zea mays, ZEAMX) [12] = experiment: Test A pre-emergence, corn
Description: as §1, §2

Row | SMILES | damage to plant (100=total damage; 0=no damage) SETFA ([1]; Pre-Emergence at 15.625 g/ha) | damage to plant (100=total damage; 0=no damage) SETFA ([1]; Pre-Emergence at 62.5 g/ha) | damage to plant (100=total damage; 0=no damage) SETFA ([1]; Pre-Emergence at 250 g/ha) | damage to plant (100=total damage; 0=no damage) AMARE ([2]; Pre-Emergence at 15.625 g/ha) | damage to plant (100=total damage; 0=no damage) AMARE ([2]; Pre-Emergence at 62.5 g/ha) | damage to plant (100=total damage; 0=no damage) AMARE ([2]; Pre-Emergence at 250 g/ha) | damage to plant (100=total damage; 0=no damage) IPOHE ([3]; Post-Emergence at 15.625 g/ha) | damage to plant (100=total damage; 0=no damage) IPOHE ([3]; Post-Emergence at 62.5 g/ha) | damage to plant (100=total damage; 0=no damage) IPOHE ([3]; Post-Emergence at 250 g/ha) | damage to plant (100=total damage; 0=no damage) ECHCG ([4]; Pre-Emergence at 15.625 g/ha) | damage to plant (100=total damage; 0=no damage) ECHCG ([4]; Pre-Emergence at 62.5 g/ha) | damage to plant (100=total damage; 0=no damage) ECHCG ([4]; Pre-Emergence at 250 g/ha) | damage to plant (100=total damage; 0=no damage) ABUTH ([5]; Pre-Emergence at 15.625 g/ha) | damage to plant (100=total damage; 0=no damage) ABUTH ([5]; Pre-Emergence at 62.5 g/ha) | damage to plant (100=total damage; 0=no damage) ABUTH ([5]; Pre-Emergence at 250 g/ha) | damage to plant (100=total damage; 0=no damage) SETFA ([6]; Post-Emergence at 15.625 g/ha) | damage to plant (100=total damage; 0=no damage) SETFA ([6]; Post-Emergence at 62.5 g/ha) | damage to plant (100=total damage; 0=no damage) SETFA ([6]; Post-Emergence at 250 g/ha) | damage to plant (100=total damage; 0=no damage) IPOHE ([7]; Pre-Emergence at 15.625 g/ha) | damage to plant (100=total damage; 0=no damage) IPOHE ([7]; Pre-Emergence at 62.5 g/ha) | further results
1 | CCc1ccccc1NC(=O)C1C(=O)N(C)CC1c1cc(C(F)(F)F)n(C)n1 (racemic) [Compound 20] | 50 | 80 | 90 | 50 | 60 | 70 | 0 | 0 | 0 | 50 | 80 | 90 | 0 | 0 | 0 | 30 | 70 | 80 | 0 | 0 | damage to plant (100=total damage; 0=no damage) IPOHE ([7]; Pre-Emergence at 250 g/ha): 0; damage to plant (100=total damage; 0=no damage) ZEAMX (corn (Zea mays, ZEAMX) [8]; Post-Emergence at 15.625 g/ha): 0; damage to plant (100=total damage; 0=no damage) ZEAMX (corn (Zea mays, ZEAMX) [8]; Post-Emergence at 62.5 g/ha): 0; damage to plant (100=total damage; 0=no damage) ZEAMX (corn (Zea mays, ZEAMX) [8]; Post-Emergence at 250 g/ha): 0; damage to plant (100=total damage; 0=no damage) AMARE ([9]; Post-Emergence at 15.625 g/ha): 10; damage to plant (100=total damage; 0=no damage) AMARE ([9]; Post-Emergence at 62.5 g/ha): 10; damage to plant (100=total damage; 0=no damage) AMARE ([9]; Post-Emergence at 250 g/ha): 20; damage to plant (100=total damage; 0=no damage) ABUTH ([10]; Post-Emergence at 15.625 g/ha): 0; damage to plant (100=total damage; 0=no damage) ABUTH ([10]; Post-Emergence at 62.5 g/ha): 0; damage to plant (100=total damage; 0=no damage) ABUTH ([10]; Post-Emergence at 250 g/ha): 0; damage to plant (100=total damage; 0=no damage) ECHCG ([11]; Post-Emergence at 15.625 g/ha): 20; damage to plant (100=total damage; 0=no damage) ECHCG ([11]; Post-Emergence at 62.5 g/ha): 60; damage to plant (100=total damage; 0=no damage) ECHCG ([11]; Post-Emergence at 250 g/ha): 80; damage to plant (100=total damage; 0=no damage) ZEAMX (corn (Zea mays, ZEAMX) [12]; Pre-Emergence at 15.625 g/ha): 0; damage to plant (100=total damage; 0=no damage) ZEAMX (corn (Zea mays, ZEAMX) [12]; Pre-Emergence at 62.5 g/ha): 0; damage to plant (100=total damage; 0=no damage) ZEAMX (corn (Zea mays, ZEAMX) [12]; Pre-Emergence at 250 g/ha): 20
2 | CN1CC(c2cc(C(F)(F)F)n(C)n2)C(C(=O)Nc2cccc(F)c2OC(F)F)C1=O (racemic) [Compound 23] | 70 | 90 | 90 | 0 | 0 | 0 | 0 | 10 | 30 | 70 | 90 | 90 | 0 | 0 | 0 | 60 | 80 | 80 | 0 | 10 | damage to plant (100=total damage; 0=no damage) IPOHE ([7]; Pre-Emergence at 250 g/ha): 20; damage to plant (100=total damage; 0=no damage) ZEAMX (corn (Zea mays, ZEAMX) [8]; Post-Emergence at 15.625 g/ha): 0; damage to plant (100=total damage; 0=no damage) ZEAMX (corn (Zea mays, ZEAMX) [8]; Post-Emergence at 62.5 g/ha): 20; damage to plant (100=total damage; 0=no damage) ZEAMX (corn (Zea mays, ZEAMX) [8]; Post-Emergence at 250 g/ha): 80; damage to plant (100=total damage; 0=no damage) AMARE ([9]; Post-Emergence at 15.625 g/ha): 0; damage to plant (100=total damage; 0=no damage) AMARE ([9]; Post-Emergence at 62.5 g/ha): 0; damage to plant (100=total damage; 0=no damage) AMARE ([9]; Post-Emergence at 250 g/ha): 0; damage to plant (100=total damage; 0=no damage) ABUTH ([10]; Post-Emergence at 15.625 g/ha): 0; damage to plant (100=total damage; 0=no damage) ABUTH ([10]; Post-Emergence at 62.5 g/ha): 0; damage to plant (100=total damage; 0=no damage) ABUTH ([10]; Post-Emergence at 250 g/ha): 0; damage to plant (100=total damage; 0=no damage) ECHCG ([11]; Post-Emergence at 15.625 g/ha): 50; damage to plant (100=total damage; 0=no damage) ECHCG ([11]; Post-Emergence at 62.5 g/ha): 80; damage to plant (100=total damage; 0=no damage) ECHCG ([11]; Post-Emergence at 250 g/ha): 80; damage to plant (100=total damage; 0=no damage) ZEAMX (corn (Zea mays, ZEAMX) [12]; Pre-Emergence at 15.625 g/ha): 10; damage to plant (100=total damage; 0=no damage) ZEAMX (corn (Zea mays, ZEAMX) [12]; Pre-Emergence at 62.5 g/ha): 20; damage to plant (100=total damage; 0=no damage) ZEAMX (corn (Zea mays, ZEAMX) [12]; Pre-Emergence at 250 g/ha): 40
